Experimental data taken from US20090076168A1, “AMINE-BASED AND IMINE-BASED POLYMERS, USES AND PREPARATION THEREOF” (priority 2005, published 2009).

System: skin
Conditions: guaranine 50 mg/mL, 1-2 mL solution or gel/100 cm^2 of skin, young subjects, compared to untreated subjects
Method: Bioactive molecules can be added and the mixture stirred for 30 minutes to 2 hours according to their liposoluble or water-soluble nature. The addition of collagen or gelatin (1-10%), Polawax™ (1-10%), cetyl alcohol (1-10%), fatty acids (stearic or palmitique, 1-10%), Tween™ 20% and terpenoid (i.e. limonene) is optional.

Cn1c(=O)c2c(ncn2C)n(C)c1=O [guaranine]
blood pressure: considerable increase
pulsations: considerable increase
